Earlier results in patent publication US7329673B2, “Acylated spiropiperidine derivatives as melanocortin-4 receptor agonists” (Merck & Co., Inc., priority 2003, dated 2008).

Key:
[1] = tested on: men with erectile dysfunction; settings: for duration of effect / onset of action: after an oral dose; for share of men/patients in whom effective (adequate response): oral
[2] = in vivo, po
[3] = tested on: males with psychogenic erectile dysfunction

Compound	duration of effect [1]	onset of action [1] [min]	share of men/patients in whom effective (adequate response) [1]	absorption into the systemic circulation [2]	duration of action ([3]; in vivo)	time to onset of erection ([3]; in vivo) [min]	response rate ([3]; injected intramuscularly or subcutaneously) [%]
Cc1ccc(N(CC2=NCCN2)c2cccc(O)c2)cc1 [phentolamine]	2 h	5 to 30	35-40%	–	–	–	–
CCCc1nn(C)c2c(=O)[nH]c(-c3cc(S(=O)(=O)N4CCN(C)CC4)ccc3OCC)nc12 [sildenafil]	about 4 hours	30 to 60	about 70%	–	–	–	–
Ac-Nle-c[Asp-His-DPhe-Arg-Trp-Lys]-NH2 [MT-II]	–	–	–	not absorbed into the systemic circulation	approximately 2.5 hours	10 to 20	75
